For the test, the target named is T1, AsPC-1 HiBiT-KRASG12D (Homo sapiens, UniProt P01116, G12D).
T1 construct: insert the HiBiT tag onto the N-terminus of one or more of the endogenous KRAS alleles; endogenous in cells; host or cells: AsPC-1 (ATCC CRL-1682), CRISPR-Cas9 knock-in clone, one tagged allele
Put plainly: HiBiT degradation assay (G12D), AsPC-1 HiBiT-KRASG12D cells. The class given is cell-based. To be noted: 24 hours treatment; for Dmax: ASPC1, AsPC-1 HiBiT-KRASG12D cells, maximum degradation observed; for DC50: AsPC-1 HiBiT-KRASG12D cells, HiBiT luminescence. A digest of the protocol: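 Steps: treat HiBiT-KRASG12D AsPC-1 cells with compound for 24 hours; add alamar blue to 1× and incubate 4 hours to assess viability; wash with PBS; add HiBiT lytic detection reagent, incubate 45 minutes at room temperature; read luminescence. Viability fluorescence is normalized to DMSO wells.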

T1 sequence (P01116 1-188 isoform P01116-2 G12D): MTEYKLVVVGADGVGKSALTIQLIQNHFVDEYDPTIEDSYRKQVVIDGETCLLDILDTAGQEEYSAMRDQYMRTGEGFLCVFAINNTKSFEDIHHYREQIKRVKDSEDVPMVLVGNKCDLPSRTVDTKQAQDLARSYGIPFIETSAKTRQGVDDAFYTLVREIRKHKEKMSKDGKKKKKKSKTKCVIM

For `CCc1cccc2cc(O)cc(-c3ncc4c(N5CC6CCC(C5)N6)nc(OC[C@@]56CCCN5[C@H](CN5CCC(COc7cc([C@H](C(=O)N8C[C@H](O)C[C@H]8C(=O)N[C@@H](C)c8ccc(-c9scnc9C)cc8)C(C)C)on7)CC5)CC6)nc4c3F)c12` [Compound 96, (2S,4R)-1-[(2R)-2-{3-[(1-{[(3S,7aS)-7a-{[(4-{3,8-diazabicyclo[3.2.1]octan-3-yl}-7-(8-ethyl-3-hydroxynaphthalen-1-yl)-8-fluoropyrido[4,3-d]pyrimidin-2-yl)oxy]methyl}-hexahydro-1H-pyrrolizin-3-yl]methyl}piperidin-4-yl)methoxy]-1,2-oxazol-5-yl}-3-methylbutanoyl]-4-hydroxy-N-[(1S)-1-[4-(4-methyl-1,3-thiazol-5-yl)phenyl]ethyl]pyrrolidine-2-carboxamide], the Dmax (in general, the greatest extent of degradation seen) was in the range of 80 to 100% and the DC50 – broadly, the midpoint of the concentration-degradation curve – was below 600 nM.

In the case of `CCc1cccc2cc(O)cc(-c3ncc4c(N5CC6CCC(C5)N6)nc(OC[C@@]56CCCN5[C@H](CN5CCC(COc7cc([C@@H](C(=O)N8C[C@H](O)C[C@H]8C(=O)N[C@@H](C)c8ccc(-c9scnc9C)cc8)C(C)C)on7)CC5)CC6)nc4c3F)c12` [Compound 97, (2S,4R)-1-[(2S)-2-{3-[(1-{[(3S,7aS)-7a-{[(4-{3,8-diazabicyclo[3.2.1]octan-3-yl}-7-(8-ethyl-3-hydroxynaphthalen-1-yl)-8-fluoropyrido[4,3-d]pyrimidin-2-yl)oxy]methyl}-hexahydro-1H-pyrrolizin-3-yl]methyl}piperidin-4-yl)methoxy]-1,2-oxazol-5-yl}-3-methylbutanoyl]-4-hydroxy-N-[(1S)-1-[4-(4-methyl-1,3-thiazol-5-yl)phenyl]ethyl]pyrrolidine-2-carboxamide], the greatest degradation seen (Dmax) was 20 to 60% and the DC50 lay within 600 to 1000 nM.

For `CCc1cccc2cc(O)cc(-c3ncc4c(N5CC6CCC(C5)N6)nc(OC[C@@]56CCCN5[C@H](COC(=O)NCc5cc([C@@H](C(=O)N7C[C@H](O)C[C@H]7C(=O)N[C@@H](C)c7ccc(-c8scnc8C)cc7)C(C)C)on5)CC6)nc4c3F)c12` [Compound 100, [(3S,7aS)-7a-{[(4-{3,8-diazabicyclo[3.2.1]octan-3-yl}-7-(8-ethyl-3-hydroxynaphthalen-1-yl)-8-fluoropyrido[4,3-d]pyrimidin-2-yl)oxy]methyl}-hexahydro-1H-pyrrolizin-3-yl]methyl N-({5-[(2S)-1-[(2S,4R)-4-hydroxy-2-{[(1S)-1-[4-(4-methyl-1,3-thiazol-5-yl)phenyl]ethyl]carbamoyl}pyrrolidin-1-yl]-3-methyl-1-oxobutan-2-yl]-1,2-oxazol-3-yl}methyl) carbamate], the Dmax lay within 20 to 60% and the DC50 fell in the range of 1000 to 3000 nM.

In the case of `CCc1cccc2cc(O)cc(-c3ncc4c(N5CC6CCC(C5)N6)nc(O[C@H](C)CN5CCC(COc6cc([C@H](C(=O)N7C[C@H](O)C[C@H]7C(=O)N[C@@H](C)c7ccc(-c8scnc8C)cc7)C(C)C)on6)CC5)nc4c3F)c12` [Compound 101, (2S,4R)-1-[(2R)-2-[3-({1-[(2R)-2-[(4-{3,8-diazabicyclo[3.2.1]octan-3-yl}-7-(8-ethyl-3-hydroxynaphthalen-1-yl)-8-fluoropyrido[4,3-d]pyrimidin-2-yl)oxy]propyl]piperidin-4-yl}methoxy)-1,2-oxazol-5-yl]-3-methylbutanoyl]-4-hydroxy-N-[(1S)-1-[4-(4-methyl-1,3-thiazol-5-yl)phenyl]ethyl]pyrrolidine-2-carboxamide], the Dmax lay within 60 to 80% and the DC50 was below 600 nM.

On to `CCc1cccc2cc(O)cc(-c3ncc4c(N5CC6CCC(C5)N6)nc(OC[C@]56CCCN5[C@@H](COC(=O)NCc5cc([C@H](C(=O)N7C[C@H](O)C[C@H]7C(=O)N[C@@H](C)c7ccc(-c8scnc8C)cc7)C(C)C)on5)CC6)nc4c3F)c12` [Compound 102, [(3R,7aR)-7a-{[(4-{3,8-diazabicyclo[3.2.1]octan-3-yl}-7-(8-ethyl-3-hydroxynaphthalen-1-yl)-8-fluoropyrido[4,3-d]pyrimidin-2-yl)oxy]methyl}-hexahydro-1H-pyrrolizin-3-yl]methyl N-({5-[(2R)-1-[(2S,4R)-4-hydroxy-2-{[(1S)-1-[4-(4-methyl-1,3-thiazol-5-yl)phenyl]ethyl]carbamoyl}pyrrolidin-1-yl]-3-methyl-1-oxobutan-2-yl]-1,2-oxazol-3-yl}methyl) carbamate], for which the Dmax was in the range of 80 to 100% and the DC50 is below 600 nM.

The molecule `CCc1cccc2cc(O)cc(-c3ncc4c(N5CC6CCC(C5)N6)nc(OC[C@]56CCCN5[C@@H](COC(=O)NCc5cc([C@@H](C(=O)N7C[C@H](O)C[C@H]7C(=O)N[C@@H](C)c7ccc(-c8scnc8C)cc7)C(C)C)on5)CC6)nc4c3F)c12` [Compound 103, [(3R,7aR)-7a-{[(4-{3,8-diazabicyclo[3.2.1]octan-3-yl}-7-(8-ethyl-3-hydroxynaphthalen-1-yl)-8-fluoropyrido[4,3-d]pyrimidin-2-yl)oxy]methyl}-hexahydro-1H-pyrrolizin-3-yl]methyl N-({5-[(2S)-1-[(2S,4R)-4-hydroxy-2-{[(1S)-1-[4-(4-methyl-1,3-thiazol-5-yl)phenyl]ethyl]carbamoyl}pyrrolidin-1-yl]-3-methyl-1-oxobutan-2-yl]-1,2-oxazol-3-yl}methyl) carbamate] showed a Dmax of 20 to 60% and a DC50 of 1000 to 3000 nM.

`CCc1cccc2cc(O)cc(-c3ncc4c(N5CC6CCC(C5)N6)nc(OC[C@@]56CCCN5[C@H](COC(=O)NCc5cc([C@H](C(=O)N7C[C@H](O)C[C@H]7C(=O)N[C@@H](C)c7ccc(-c8scnc8C)cc7)C(C)C)on5)CC6)nc4c3F)c12` [Compound 104, [(3S,7aS)-7a-{[(4-{3,8-diazabicyclo[3.2.1]octan-3-yl}-7-(8-ethyl-3-hydroxynaphthalen-1-yl)-8-fluoropyrido[4,3-d]pyrimidin-2-yl)oxy]methyl}-hexahydro-1H-pyrrolizin-3-yl]methyl N-({5-[(2R)-1-[(2S,4R)-4-hydroxy-2-{[(1S)-1-[4-(4-methyl-1,3-thiazol-5-yl)phenyl]ethyl]carbamoyl}pyrrolidin-1-yl]-3-methyl-1-oxobutan-2-yl]-1,2-oxazol-3-yl}methyl) carbamate] showed a Dmax of 80 to 100% and a DC50 below 600 nM.

`CCc1cccc2cc(O)cc(-c3ncc4c(N5CC6CCC(C5)N6)nc(OC[C@]56CCCN5[C@H](COC(=O)N5CCN(c7cc([C@H](C(=O)N8C[C@H](O)C[C@H]8C(=O)N[C@@H](C)c8ccc(-c9scnc9C)cc8)C(C)C)on7)CC5)CC6)nc4c3F)c12` [Compound 105, [(3S,7aR)-7a-{[(4-{3,8-diazabicyclo[3.2.1]octan-3-yl}-7-(8-ethyl-3-hydroxynaphthalen-1-yl)-8-fluoropyrido[4,3-d]pyrimidin-2-yl)oxy]methyl}-hexahydro-1H-pyrrolizin-3-yl]methyl 4-{5-[(2R)-1-[(2S,4R)-4-hydroxy-2-{[(1S)-1-[4-(4-methyl-1,3-thiazol-5-yl)phenyl]ethyl]carbamoyl}pyrrolidin-1-yl]-3-methyl-1-oxobutan-2-yl]-1,2-oxazol-3-yl}piperazine-1-carboxylate] came in with a Dmax of 80 to 100% and a DC50 below 600 nM.

The values are drawn from US20250206732A1, “COMPOUNDS AND METHODS FOR THE TARGETED DEGRADATION OF KRAS” (Arvinas Operations, Inc., priority 2022, published 2025).
